In US20090214544A1, “Method of treating cd30 positive lymphomas” (MEDAREX, priority 2005, published 2009):

B1: 5F11: fully human anti-CD30 monoclonal antibody; VH SEQ ID NO: 10, VL SEQ ID NO: 12; VH 4-34 and VK L15 (antibody, chains of the INN, looked up, V domains shown)
VH: QVQLQQWGAGLLKPSETLSLTCAVYGGSFSAYYWSWIRQPPGKGLEWIGDINHGGGTNYNPSLKSRVTISVDTSKNQFSLKLNSVTAADTAVYYCASLTAYWGQGSLVTVSS
VL: DIQMTQSPTSLSASVGDRVTITCRASQGISSWLTWYQQKPEKAPKSLIYAASSLQSGVPSRFSGSGSGTDFTLTISSLQPEDFATYYCQQYDSYPITFGQGTRLEIK
notes: fully human anti-CD30 monoclonal antibody; VH 4-34 and VK L15

Legend:
[1] = guidance for hydrocortisone equivalents; actual potency may vary slightly; cited from earlier work
[2] = test system: T cell lymphoma, CD30 positive lymphoma; experiment: Combination therapy of anti-CD30 antibody and glucocorticosteroid in a patient with T cell lymphoma; type: in vivo, human; settings: Patient 3, T cell lymphoma; 40 mg oral dexamethasone daily for 4 days, then 50 mg oral prednisolone daily for 20 days; 15 mg/kg 5F11 i.v. once per week for 3 weeks from second week
Protocol: Patient 3, diagnosed with T cell lymphoma, received 40 mg oral dexamethasone once per day for 4 days. On day 5, dexamethasone treatment ceased and 50 mg oral prednisolone was administered once per day for 20 days. At the beginning of the second week of steroid therapy, antibody therapy was initiated by administering 15 mg/kg anti-CD30 antibody 5F11 by i.v. infusion once per day per week for 3 weeks.

[3] = test system: ALCL and various HD-derived cell lines; settings: in vitro and in vivo; Borchmann et al., Blood 2003; cited from earlier work
[4] = test system: Hodgkin's Disease (HD), CD30 positive lymphoma; experiment: Combination therapy of anti-CD30 antibody and glucocorticosteroid in patients with Hodgkin's Disease; type: in vivo, human
Protocol: The patient, diagnosed with HD, received 5 mg/kg anti-CD30 antibody 5F11 by i.v. infusion once per day per week for 3 weeks. The week after completing antibody therapy (i.e., fourth week from start of therapy), the patient received 40 mg oral dexamethasone once per day for 2 days; one month later the patient received another 40 mg oral dexamethasone once per day for 4 days; two weeks later the patient received a third regimen of 40 mg oral dexamethasone once per day for 4 days.
Patient 2, diagnosed with HD, received 15 mg/kg anti-CD30 antibody 5F11 by i.v. infusion once per day per week for 3 weeks. At the start of week 3 of antibody therapy, the patient received one dose of 50 mg oral dexamethasone. After completion of antibody therapy (i.e., at the beginning of week four following the start of therapy), the patient received one dose of 100 mg oral prednisolone.
Patient 4, diagnosed with HD, received 1 mg/kg anti-CD30 antibody […] by i.v. infusion once per day per week for 3 weeks. On the second day of week 1 after beginning therapy, the patient received 40 mg oral dexamethasone once per day for 4 days, followed by no steroid therapy for 10 days. Thus, a dexamethasone cycle was completed over a 14 day period. For this patient, 8 cycles of dexamethasone therapy were completed over a period of 4 months.

| Molecule | Relative potency in mg to hydrocortisone [1] | further results |
| --- | --- | --- |
| C[C@]12CCC(=O)C=C1CC[C@@H]1[C@@H]2[C@@H](O)C[C@@]2(C)[C@H]1CC[C@]2(O)C(=O)CO [Hydrocortisone] | 1 | – |
| C[C@]12CCC(=O)C=C1CC[C@@H]1[C@@H]2[C@@H](O)C[C@@]2(C)[C@H]1CC[C@]2(O)C(=O)CO [Cortisol] | 1.25 | – |
| C[C@]12C=CC(=O)C=C1CC[C@H]1[C@@H]3C[C@@H](O)[C@](O)(C(=O)CO)[C@@]3(C)C[C@H](O)[C@@]12F [Triamcinolone] | 5 | – |
| C[C@]12C=CC(=O)C=C1CC[C@@H]1[C@@H]2[C@@H](O)C[C@@]2(C)[C@H]1CC[C@]2(O)C(=O)CO [Prednisolone] | 4 | – |
| C[C@]12CCC(=O)C=C1CC[C@@H]1[C@@H]2C(=O)C[C@@]2(C)[C@H]1CC[C@]2(O)C(=O)CO [Cortisone] | 0.8 | – |
| B1 | – | clinical response [2]: complete response; efficacy against ALCL and various HD-derived cell lines [3]: shown efficacy; clinical response ([4]; Patient 1, HD, 5 mg/kg 5F11 i.v. once per week for 3 weeks, then 40 mg oral dexamethasone once per day for 2 days, 4 days and 4 days (three regimens)): partial response; clinical response ([4]; Patient 2, HD, 15 mg/kg 5F11 i.v. once per week for 3 weeks, one dose 50 mg oral dexamethasone at week 3, one dose 100 mg oral prednisolone at week 4): partial response, which improved to complete a response; clinical response ([4]; Patient 4, HD, 1 mg/kg antibody i.v. once per week for 3 weeks, 8 cycles of 40 mg oral dexamethasone daily for 4 days per 14 days over 4 months): partial response |
